Measured values reported in ChEMBL document CHEMBL3885881, “DrugMatrix”.

Species: Rattus norvegicus
Assay: DrugMatrix - Regimen: Daily Repeat
Assay type: toxicity, organism-based, Sprague-Dawley
Set-up: regimen Daily Repeat, gender Male, age 6-8 weeks
Conditions: in vivo, po, 430 mg/kg, route oral GAVAGE, dose level High, vehicle .5 % CMC; for ABSOLUTE BASOPHIL / ABSOLUTE EOSINOPHIL / ABSOLUTE LYMPHOCYTE / ABSOLUTE MONOCYTE / ABSOLUTE SEGMENTED NEUTROPHIL / BASOPHIL / EOSINOPHIL / ERYTHROCYTE COUNT / HEMATOCRIT / HEMOGLOBIN / LEUKOCYTE COUNT / LYMPHOCYTE / MEAN CORPUSCULAR HEMOGLOBIN / MEAN CORPUSCULAR HEMOGLOBIN CONCENTRATION / MEAN CORPUSCULAR VOLUME / MONOCYTE / NEUTROPHIL / NUCLEATED RED BLOOD CELLS / PLATELET COUNT: tissue Blood; for ALANINE AMINOTRANSFERASE / ALBUMIN / ALKALINE PHOSPHATASE / ASPARTATE AMINOTRANSFERASE / BLOOD UREA NITROGEN / CARBON DIOXIDE / CHLORIDE / CHOLESTEROL / CREATININE / GLUCOSE / LACTATE DEHYDROGENASE / LIPASE / PHOSPHORUS / POTASSIUM / SODIUM / TOTAL BILIRUBIN / TOTAL PROTEIN / URIC ACID: tissue Plasma

ClC(Cl)Br [BROMODICHLOROMETHANE]
ABSOLUTE BASOPHIL (72 h, time 3 day): 0 CELLS/uL | ABSOLUTE EOSINOPHIL (72 h, time 3 day): 216.67 CELLS/uL | ABSOLUTE LYMPHOCYTE (72 h, time 3 day): 11508.33 CELLS/uL | ABSOLUTE MONOCYTE (72 h, time 3 day): 948.33 CELLS/uL | ABSOLUTE SEGMENTED NEUTROPHIL (72 h, time 3 day): 1326.67 CELLS/uL | BASOPHIL (72 h, time 3 day): 0% | EOSINOPHIL (72 h, time 3 day): 1.33% | ERYTHROCYTE COUNT (72 h, time 3 day): 6.13 x10E6/uL | HEMATOCRIT (72 h, time 3 day): 37.07% | HEMOGLOBIN (72 h, time 3 day): 13.87 G/DL | LEUKOCYTE COUNT (72 h, time 3 day): 14 x10E3/uL | LYMPHOCYTE (72 h, time 3 day): 82.33% | MEAN CORPUSCULAR HEMOGLOBIN (72 h, time 3 day): 22.63 pg | MEAN CORPUSCULAR HEMOGLOBIN CONCENTRATION (72 h, time 3 day): 37.4 G/DL | MEAN CORPUSCULAR VOLUME (72 h, time 3 day): 60.47 fL | MONOCYTE (72 h, time 3 day): 6.67% | NEUTROPHIL (72 h, time 3 day): 9.67% | NUCLEATED RED BLOOD CELLS (72 h, time 3 day): 0 /100WBC | PLATELET COUNT (72 h, time 3 day): 1186 x10E3/uL | ALANINE AMINOTRANSFERASE (72 h, time 3 day): 73.33 u/L | ALBUMIN (72 h, time 3 day): 4.57 G/DL | ALKALINE PHOSPHATASE (72 h, time 3 day): 459.67 u/L | ASPARTATE AMINOTRANSFERASE (72 h, time 3 day): 106 u/L | BLOOD UREA NITROGEN (72 h, time 3 day): 18.67 mg/dL | CARBON DIOXIDE (72 h, time 3 day): 23 mmol/L | CHLORIDE (72 h, time 3 day): 104.67 MEQ/L | CHOLESTEROL (72 h, time 3 day): 72 mg/dL | CREATININE (72 h, time 3 day): 0.22 mg/dL | GLUCOSE (72 h, time 3 day): 124.33 mg/dL | LACTATE DEHYDROGENASE (72 h, time 3 day): 655 u/L | LIPASE (72 h, time 3 day): 9 u/L | PHOSPHORUS (72 h, time 3 day): 12.47 mg/dL | POTASSIUM (72 h, time 3 day): 6.06 MEQ/L | SODIUM (72 h, time 3 day): 141.67 MEQ/L | TOTAL BILIRUBIN (72 h, time 3 day): 0.27 mg/dL | TOTAL PROTEIN (72 h, time 3 day): 5.93 G/DL | URIC ACID (72 h, time 3 day): 1.9 mg/dL | ABSOLUTE BASOPHIL (120 h, time 5 day): 0 CELLS/uL | ABSOLUTE EOSINOPHIL (120 h, time 5 day): 20 CELLS/uL | ABSOLUTE LYMPHOCYTE (120 h, time 5 day): 7894 CELLS/uL | ABSOLUTE MONOCYTE (120 h, time 5 day): 268.67 CELLS/uL | ABSOLUTE SEGMENTED NEUTROPHIL (120 h, time 5 day): 750.67 CELLS/uL | BASOPHIL (120 h, time 5 day): 0% | EOSINOPHIL (120 h, time 5 day): 0.33% | ERYTHROCYTE COUNT (120 h, time 5 day): 6.18 x10E6/uL | HEMATOCRIT (120 h, time 5 day): 35.9% | HEMOGLOBIN (120 h, time 5 day): 13 G/DL | LEUKOCYTE COUNT (120 h, time 5 day): 8.93 x10E3/uL | LYMPHOCYTE (120 h, time 5 day): 88.67% | MEAN CORPUSCULAR HEMOGLOBIN (120 h, time 5 day): 21.07 pg | MEAN CORPUSCULAR HEMOGLOBIN CONCENTRATION (120 h, time 5 day): 36.23 G/DL | MEAN CORPUSCULAR VOLUME (120 h, time 5 day): 58.1 fL | MONOCYTE (120 h, time 5 day): 2.67% | NEUTROPHIL (120 h, time 5 day): 8.33% | NUCLEATED RED BLOOD CELLS (120 h, time 5 day): 0 /100WBC | PLATELET COUNT (120 h, time 5 day): 970.33 x10E3/uL | ALANINE AMINOTRANSFERASE (120 h, time 5 day): 85 u/L | ALBUMIN (120 h, time 5 day): 4.6 G/DL | ALKALINE PHOSPHATASE (120 h, time 5 day): 399.33 u/L | ASPARTATE AMINOTRANSFERASE (120 h, time 5 day): 105 u/L | BLOOD UREA NITROGEN (120 h, time 5 day): 12.67 mg/dL | CARBON DIOXIDE (120 h, time 5 day): 33.67 mmol/L | CHLORIDE (120 h, time 5 day): 103.67 MEQ/L | CHOLESTEROL (120 h, time 5 day): 63.33 mg/dL | CREATININE (120 h, time 5 day): 0.21 mg/dL | GLUCOSE (120 h, time 5 day): 116 mg/dL | LACTATE DEHYDROGENASE (120 h, time 5 day): 107.67 u/L | LIPASE (120 h, time 5 day): 9.33 u/L | PHOSPHORUS (120 h, time 5 day): 10.87 mg/dL | POTASSIUM (120 h, time 5 day): 5.17 MEQ/L | SODIUM (120 h, time 5 day): 146.4 MEQ/L | TOTAL BILIRUBIN (120 h, time 5 day): 0.23 mg/dL | TOTAL PROTEIN (120 h, time 5 day): 6.17 G/DL | URIC ACID (120 h, time 5 day): 0.8 mg/dL | ABSOLUTE BASOPHIL ([…], time 14 day): 0 CELLS/uL | ABSOLUTE EOSINOPHIL ([…], time 14 day): 120.4 CELLS/uL | ABSOLUTE LYMPHOCYTE ([…], time 14 day): 11064.6 CELLS/uL | ABSOLUTE MONOCYTE ([…], time 14 day): 372 CELLS/uL | ABSOLUTE SEGMENTED NEUTROPHIL ([…], time 14 day): 2303 CELLS/uL | BASOPHIL ([…], time 14 day): 0% | EOSINOPHIL ([…], time 14 day): 0.8% | ERYTHROCYTE COUNT ([…], time 14 day): 6.18 x10E6/uL | HEMATOCRIT ([…], time 14 day): 34.92% | HEMOGLOBIN ([…], time 14 day): 12.94 G/DL | LEUKOCYTE COUNT ([…], time 14 day): 13.86 x10E3/uL | LYMPHOCYTE ([…], time 14 day): 80.8% | MEAN CORPUSCULAR HEMOGLOBIN ([…], time 14 day): 20.96 pg | MEAN CORPUSCULAR HEMOGLOBIN CONCENTRATION ([…], time 14 day): 37.08 G/DL | MEAN CORPUSCULAR VOLUME ([…], time 14 day): 56.58 fL | MONOCYTE ([…], time 14 day): 2.6% | NEUTROPHIL ([…], time 14 day): 15.8% | NUCLEATED RED BLOOD CELLS ([…], time 14 day): 0 /100WBC | PLATELET COUNT ([…], time 14 day): 862.2 x10E3/uL | ALANINE AMINOTRANSFERASE ([…], time 14 day): 65.6 u/L | ALBUMIN ([…], time 14 day): 4.56 G/DL | ALKALINE PHOSPHATASE ([…], time 14 day): 422.2 u/L | ASPARTATE AMINOTRANSFERASE ([…], time 14 day): 104.6 u/L | BLOOD UREA NITROGEN ([…], time 14 day): 19.6 mg/dL | CARBON DIOXIDE ([…], time 14 day): 25.8 mmol/L | CHLORIDE ([…], time 14 day): 106.8 MEQ/L | CHOLESTEROL ([…], time 14 day): 71.4 mg/dL | CREATININE ([…], time 14 day): 0.25 mg/dL | GLUCOSE ([…], time 14 day): 140.6 mg/dL | LACTATE DEHYDROGENASE ([…], time 14 day): 190 u/L | LIPASE ([…], time 14 day): 9.2 u/L | PHOSPHORUS ([…], time 14 day): 10.96 mg/dL | POTASSIUM ([…], time 14 day): 5.79 MEQ/L | SODIUM ([…], time 14 day): 145.9 MEQ/L | TOTAL BILIRUBIN ([…], time 14 day): 0.16 mg/dL | TOTAL PROTEIN ([…], time 14 day): 6.14 G/DL | URIC ACID ([…], time 14 day): 1.44 mg/dL
